Measurements as given in ChEMBL document CHEMBL5338738, “Discovery of Novel Sesquiterpene Lactone Derivatives as Potent PKM2 Activators for the Treatment of Ulcerative Colitis” (J Med Chem, 2023).
Activity calls are given as the source filed them. The calls are words filed in the database; no cut-off is given here.

Legend:
T-cell = test: Immunomodulatory activity in C57BL/6 mouse mesenteric lymph node T cells assessed as inhibition of concanavalin A stimulated T-cell proliferation incubated for 68 hrs by CCK-8 assay; assay type: functional, cell-based; conditions: C57BL/6, T-cell
Pyruvate kinase PKM [1] = molecular target: T1, Pyruvate kinase PKM (Homo sapiens, UniProt P14618); test: Binding affinity to PKM2 (unknown origin) by SPR assay
Target sequence in this assay (P14618 whole entry): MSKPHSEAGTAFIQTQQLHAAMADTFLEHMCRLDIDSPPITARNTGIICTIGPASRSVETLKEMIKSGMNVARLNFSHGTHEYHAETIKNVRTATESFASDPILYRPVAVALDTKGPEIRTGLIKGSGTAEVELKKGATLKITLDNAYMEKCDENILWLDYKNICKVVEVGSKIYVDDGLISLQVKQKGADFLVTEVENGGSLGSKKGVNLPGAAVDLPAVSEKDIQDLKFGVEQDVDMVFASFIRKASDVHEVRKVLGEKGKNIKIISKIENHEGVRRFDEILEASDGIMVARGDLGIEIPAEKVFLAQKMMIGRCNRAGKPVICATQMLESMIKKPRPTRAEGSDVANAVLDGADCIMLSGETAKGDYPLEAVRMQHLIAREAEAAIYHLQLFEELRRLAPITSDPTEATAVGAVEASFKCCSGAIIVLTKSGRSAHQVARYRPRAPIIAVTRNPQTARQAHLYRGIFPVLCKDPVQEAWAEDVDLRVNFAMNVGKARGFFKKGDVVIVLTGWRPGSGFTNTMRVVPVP

Pyruvate kinase PKM [2] = molecular target: T1, Pyruvate kinase PKM; test: Covalent binding affinity to recombinant human PKM2 at Cys424 residue at 20 uM incubated for 120 mins by LC-MS/MS analysis; conditions: filed as activator
Target sequence in this assay (P14618 2-531 limits assumed): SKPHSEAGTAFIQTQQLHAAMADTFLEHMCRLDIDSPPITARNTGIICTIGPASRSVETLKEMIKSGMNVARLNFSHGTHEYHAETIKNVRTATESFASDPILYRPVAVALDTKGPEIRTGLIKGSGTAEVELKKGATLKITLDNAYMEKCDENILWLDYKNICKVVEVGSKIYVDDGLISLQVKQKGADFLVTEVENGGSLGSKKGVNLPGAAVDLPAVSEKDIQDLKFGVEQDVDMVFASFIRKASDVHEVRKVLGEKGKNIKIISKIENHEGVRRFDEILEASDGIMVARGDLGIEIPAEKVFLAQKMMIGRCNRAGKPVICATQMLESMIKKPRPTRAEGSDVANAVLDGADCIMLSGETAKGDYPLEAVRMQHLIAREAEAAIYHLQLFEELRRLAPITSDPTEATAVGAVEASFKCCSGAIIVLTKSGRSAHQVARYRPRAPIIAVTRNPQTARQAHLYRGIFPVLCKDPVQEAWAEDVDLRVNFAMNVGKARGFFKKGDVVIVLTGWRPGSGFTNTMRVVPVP

[3] = (§1) Inhibition of Th17 cells differentiation in anti-CD3/CD28 stimulated C57BL/6 mouse mesenteric lymph node CD4+ve Th cells assessed as decrease in proportion of IL17A-positive Th17 cells at 1 uM incubated for 96 hrs in presence of recombinant human TGF-beta, recombinant mouse IL-6 and recombinant mouse IL-23 by flow cytometry (Rvb= 16.7%); assay type: functional; conditions: C57BL/6, CD4+ve Th
[4] = as §1, with “at 3” for “at 1”; assay type: functional; conditions: C57BL/6, CD4+ve Th
CD4+ve Th [5] = test: (§2) Inhibition of Th17 cells differentiation in anti-CD3/CD28 stimulated C57BL/6 mouse mesenteric lymph node CD4+ve Th cells assessed as downregulation of IL17f mRNA expression level at 0.1 to 3 uM incubated for 96 hrs in presence of recombinant human TGF-beta, recombinant mouse IL-6 and recombinant mouse IL-23 by qPCR analysis; assay type: functional, cell-based; conditions: dose 0.1-3 µM
[6] = Inhibition of Treg cells differentiation in anti-CD3/CD28 stimulated C57BL/6 mouse mesenteric lymph node CD4+ve Th cells assessed as decrease in proportion of Foxp3-positive Treg cells at 3 uM incubated for 96 hrs in presence of recombinant human TGF-beta by flow cytometry (Rvb= 21.1%); assay type: functional; conditions: C57BL/6, CD4+ve Th
CD4+ve Th [7] = test: Inhibition of Treg cells differentiation in anti-CD3/CD28 stimulated C57BL/6 mouse mesenteric lymph node CD4+ve Th cells assessed as change in IL10 mRNA expression level cells at 0.1 to 3 uM incubated for 96 hrs in presence of recombinant human TGF-beta by qPCR analysis; assay type: functional, cell-based; conditions: dose 0.1-3 µM
CD4+ve Th [8] = test: Effect on apoptosis in C57BL/6 mouse mesenteric lymph node CD4+ve Th cells assessed as apoptotis rate at 0.3 to 3 uM incubated for 96 hrs by Annexin-V/PI staining based flow cytometry; assay type: functional, cell-based; conditions: dose 0.3-3 µM
CD4+ve Th [9] = test: as §2, with “aerobic glycolysis” for “Th17 cells differentiation”, “Hk2” for “IL17f”, “0.3” for “0.1”; assay type: functional, cell-based; conditions: dose 0.3-3 µM
CD4+ve Th [10] = test: as §2, with “aerobic glycolysis” for “Th17 cells differentiation”, “PFK1 protein” for “IL17f mRNA”, “0.3” for “0.1”, “Western blot” for “qPCR”; assay type: functional, cell-based; conditions: dose 0.3-3 µM
Mus musculus [11] = test: Anti-colitis activity against DSS-induced ulcerative colitis C57BL/6 mouse model assessed as reduction in spleen index at 12.5 to 25 mg/kg, po for 10 days consecutively; assay type: functional, organism-based; conditions: dose 12.5-25 mg/kg, time 10.0 day
Mus musculus [12] = test: Anti-colitis activity against DSS-induced ulcerative colitis C57BL/6 mouse model assessed as decrease in TNF-alpha mRNA expression level in colon at 12.5 to 25 mg/kg, po for 10 days consecutively by qPCR analysis; assay type: functional, organism-based; conditions: dose 12.5-25 mg/kg, time 10.0 day
Mus musculus [13] = test: Anti-colitis activity against DSS-induced ulcerative colitis C57BL/6 mouse model assessed as decrease in IL-1beta mRNA expression level in colon at 12.5 to 25 mg/kg, po for 10 days consecutively by qPCR analysis; assay type: functional, organism-based; conditions: dose 12.5-25 mg/kg, time 10.0 day
[14] = Toxicity in C57BL/6 mouse assessed as histological change in spleen at 6.25 to 25 mg/kg, po for 10 days consecutively by H and E staining based microscopy; assay type: organism-based; conditions: in vivo, 240 h, dose 6.25-25 mg/kg, time 10 day
[15] = Toxicity in C57BL/6 mouse assessed as histological change in kidney at 6.25 to 25 mg/kg, po for 10 days consecutively by H and E staining based microscopy; assay type: organism-based; conditions: in vivo, 240 h, dose 6.25-25 mg/kg, time 10 day
Mus musculus [16] = test: Anti-colitis activity against TNBS-induced ulcerative colitis BALB/c mouse model assessed as decrease in infiltration of inflammatory cells into lamina propria in colon at 12.5 to 25 mg/kg, po for consecutive 7 days by H and E staining based microscopy; assay type: functional, organism-based; conditions: dose 12.5-25 mg/kg, time 7.0 day
Mus musculus [17] = test: Anti-colitis activity against DSS-induced ulcerative colitis C57BL/6 mouse model assessed as downregulation of RORC mRNA expression level in spleen at 12.5 to 25 mg/kg, po for 10 days consecutively by qPCR assay; assay type: functional, organism-based; conditions: dose 12.5-25 mg/kg, time 10.0 day
Mus musculus [18] = test: Anti-colitis activity against DSS-induced ulcerative colitis C57BL/6 mouse model assessed as downregulation of Foxp3 mRNA expression level in spleen at 6.25 to 25 mg/kg, po for 10 days consecutively by qPCR assay; assay type: functional, organism-based; conditions: dose 6.25-25 mg/kg, time 10.0 day
Mus musculus [19] = test: Anti-colitis activity against DSS-induced ulcerative colitis C57BL/6 mouse model assessed as downregulation of Foxp3 mRNA expression level in mesenteric lymph nodes at 6.25 to 25 mg/kg, po for 10 days consecutively by qPCR assay; assay type: functional, organism-based; conditions: dose 6.25-25 mg/kg, time 10.0 day
Mus musculus [20] = test: Anti-colitis activity against DSS-induced ulcerative colitis C57BL/6 mouse model assessed as downregulation of Foxp3 mRNA expression level in colon at 6.25 to 25 mg/kg, po for 10 days consecutively by qPCR assay; assay type: functional, organism-based; conditions: dose 6.25-25 mg/kg, time 10.0 day
[21] = Microsomal stability in rat liver microsomes assessed as intrinsic clearance; assay type: ADME, Microsome; conditions: read-out: CLH
[22] = Genotoxicity in Salmonella typhimurium by AMES test; assay type: toxicity; conditions: salmonella enterica subsp. enterica serovar typhimurium
[23] = Tmax in Sprague-Dawley rat at 75 mg/kg,po and measured upto 24 hrs by LC-MS/MS analysis; assay type: ADME, organism-based; conditions: in vivo
[24] = Cmax in Sprague-Dawley rat at 75 mg/kg,po and measured upto 24 hrs by LC-MS/MS analysis; assay type: ADME, organism-based; design: dose 75 mg/kg, time < 24 hrs, route po; conditions: in vivo
[25] = MRT(t) in Sprague-Dawley rat at 75 mg/kg,po and measured upto 24 hrs by LC-MS/MS analysis; assay type: ADME, organism-based; conditions: in vivo

C=C1C(=O)O[C@H]2[C@H]1CC[C@@]1(C)[C@@H](CC[C@@]3(C)O[C@@H]23)C1(F)F
IC50 (T-cell): 590 nM | Kd (Pyruvate kinase PKM [1]): 18.4 nM | Activity (Pyruvate kinase PKM [2]): Active | IL17A+ cells at 1 µM [3]: 8.1% | IL17A+ cells at 3 µM [4]: 4.26% | inhibition (CD4+ve Th [5]): Active | Foxp3+ cells at 3 µM [6]: 20.8% | inhibition (CD4+ve Th [7]): inactive | Activity (CD4+ve Th [8]): inactive | inhibition (CD4+ve Th [9]): Active | inhibition (CD4+ve Th [10]): Active | Activity (Mus musculus [11]): Active | Activity (Mus musculus [12]): Active | Activity (Mus musculus [13]): Active | Activity [14]: Non-Toxic | Activity [15]: Non-Toxic | Activity (Mus musculus [16]): Active | Activity (Mus musculus [17]): Active | Activity (Mus musculus [18]): inactive | Activity (Mus musculus [19]): inactive | Activity (Mus musculus [20]): inactive | microsomal CLint [21]: 110 µL/min/mg | Activity [22]: Non-Toxic | Tmax [23]: 6 h | Cmax [24]: 82 ng/mL | MRT last at 24 h [25]: 12.4 h
